The source of these data is publication PMC9959501, “Critical Analysis and Optimization of Stoichiometric Ratio of Drug-Coformer on Cocrystal Design: Molecular Docking, In Vitro and In Vivo Assessment” (Pharmaceuticals, 2023).

Series [1] in a line: Equilibrium solubility analysis. It counts as physicochemical. To be noted: distilled water, 25 °C, stirred 24 h; mean ± SD, n = 3. On the procedure:
Improvement in solubility may due to the formation of hydrogen bonds between the imidazole rings of telmisartan and polar carboxylate hydrogens of maleic acid in presence of solvents.
The solubility analysis of telmisartan and prepared telmisartan-maleic acid cocrystals were assessed by placing an excessive amount of sample in 50 mL of distilled water at 25 °C. Then it was stirred for 24 h using a magnetic stirrer to ensure that the solution must reach equilibrium, and then sonicated (Imeco Sonifier, Imeco Ultrasonics, Pune, India) for 15 min. Then the solution was filtered and subjected to spectrophotometric analysis at 296 nm, using a UV-visible spectrophotometer (UV-1800 Shimadzu, Kyoto, Japan).

The nature of series [2]: Pharmacokinetic study in rats. To be noted: male, Wistar, po, 1 mg/kg telmisartan equivalent in 0.5% w/v sodium carboxymethylcellulose, mean ± SD, n = 6. It counts as in vivo. On the procedure:
In vivo study protocol was approved by the Institutional Animal Ethical Committee, Dr. B. C. Roy College of Pharmacy & AHS., Durgapur, West Bengal, India (Approval No: BCRCP/IAEC/8/2019). The pharmacokinetic study was performed using male Wistar rats (180–200 g). The animals were allowed to be acclimatized for a period of 1 week in our laboratory environment prior to the experiment and had free access to water and food.
The animals were divided into two groups. Group 1 (6 animals) received pure telmisartan (1 mg/kg) with 0.5% w/v sodium carboxymethylcellulose, and Group 2 (6 animals) received optimized cocrystals (equivalent to 1 mg/kg pure telmisartan) with 0.5% w/v sodium carboxymethylcellulose. Blood samples were collected at predetermined time intervals from the retro-orbital venous plexus of the rats and centrifuged for 5 min at 10,000 rpm. The plasma was separated and drug analysis was carried out by RP-HPLC method using the software ‘Class-Vp series version 5.03 (Shimadzu)’. The in vivo pharmacokinetic parameters such as peak plasma concentration (Cmax), total area under the plasma concentration-time curve (AUC0–∞), elimination rate constant (KE), and relative bioavailability (%) were calculated by using Kinetica software (version 4.4.1; Thermo Fisher Scientific, Waltham, MA, USA).

Series [3] can be described thus: In vitro dissolution study (USP apparatus II). The conditions noted are these: phosphate buffer pH 7.5, 100 rpm, 37 ± 0.5 °C. The class given is physicochemical. On the procedure:
The dissolution study was performed in a phosphate buffer (pH 7.5) using a USP dissolution rate test apparatus II (LAB INDIA, DS 8000, Thane, India) at 100 rpm and 37 ± 0.5 °C (Figure 7). […] The enhancement in dissolution may be due to the formation of hydrogen bonds between telmisartan and maleic acid in presence of solvents. The computational simulation approach already predicted this finding. Another reason for the enhancement of dissolution may be a reduction in crystal size, solubilization effect of the carrier as well as improved wettability of the drug in presence of solvents.
A USP dissolution rate test apparatus II (LAB INDIA, DS 8000, India) was used to perform the dissolution studies of pure telmisartan and prepared multicomponent solid form (telmisartan cocrystals) in phosphate buffer medium (pH 7.5) at 37 ± 0.5 °C. An accurately weighed amount of sample was placed in a 900 mL dissolution medium and stirred at 100 rpm. At each specific time interval, a 5 mL sample was withdrawn and replaced by an equal volume of fresh pre-warmed phosphate buffer (pH 7.5) to maintain the sink condition throughout the experiment. The samples were filtered through Whatman filter paper (0.45 µm) and analyzed at 296 nm using a UV-visible spectrophotometer (UV-1800 Shimadzu, Japan). The dissolution studies were conducted in triplicate.

The nature of series [4]: Crystallite size from PXRD data (Scherrer's formula). It counts as physicochemical. On the procedure:
An XRD study was performed to assess the physico-chemical state of telmisartan in prepared telmisartan-maleic acid cocrystals. The XRD study was performed by X-Ray Diffractometer (X’Pert Pro, Panalytical, Almelo, The Netherlands) using monochromatized Cu Kα radiation (λ = 1.54 Å) at a voltage of 45 kV and a current of 40 mA. Measurements were carried out in the angular scan range from 5° to 50° (2θ) at a scan speed of 1°/min. This study also helps to determine the size of the formed crystallite using Scherrer’s formula. Crystallite size Dp=K λ/Bcosθ, where Dp is average crystallite size (nm), K is Scherrer constant, λ is X-ray wavelength, B is FWHM (Full Width at Half Maximum) of XRD peak, and θ is XRD peak position.

≈ marks a conversion by molar mass, not a printed value.

By solubility is commonly meant how much of the substance goes into solution per volume. A high value points to a readily soluble substance. Usually AUC(0-inf) stands for total exposure, with the tail of the curve extrapolated. Broadly, the Cmax is the highest concentration seen after dosing. In series [1], `CCCc1nc2c(C)cc(-c3nc4ccccc4n3C)cc2n1Cc1ccc(-c2ccccc2C(=O)O)cc1` [PD, Telmisartan] came in with a solubility at 24 h of 5.15 ± 1.16 µg/mL (≈ 10 µM). Also, in series [2] (plasma, rat, read-out: KE (elimination rate constant) (converted)), the k el was 3e-05 s⁻¹. Moreover, in series [2] (rat plasma), the AUC(0-inf) was found to be 4180 ± 87.8 ng·h/mL and the Cmax was found to be 945 ± 27.9 ng/mL. Further, the “Percentage drug dissolved within 120 min” value in series [3] was 29.04 ± 2.06%. The compound further displayed an Average crystallite size in series [4] of 893.51 ± 42.82 nm.
